Data on two compounds can be found in paper PMC6685790 (Nature structural & molecular biology, 2008).

Changes are numbered by the printed parent chain.

What all share (type): cell-based
Experiment [1] has as its target T1, GlyR α1^F99A (Homo sapiens, UniProt P23415, F127A).
T1 sequence (P23415 29-457 F127A): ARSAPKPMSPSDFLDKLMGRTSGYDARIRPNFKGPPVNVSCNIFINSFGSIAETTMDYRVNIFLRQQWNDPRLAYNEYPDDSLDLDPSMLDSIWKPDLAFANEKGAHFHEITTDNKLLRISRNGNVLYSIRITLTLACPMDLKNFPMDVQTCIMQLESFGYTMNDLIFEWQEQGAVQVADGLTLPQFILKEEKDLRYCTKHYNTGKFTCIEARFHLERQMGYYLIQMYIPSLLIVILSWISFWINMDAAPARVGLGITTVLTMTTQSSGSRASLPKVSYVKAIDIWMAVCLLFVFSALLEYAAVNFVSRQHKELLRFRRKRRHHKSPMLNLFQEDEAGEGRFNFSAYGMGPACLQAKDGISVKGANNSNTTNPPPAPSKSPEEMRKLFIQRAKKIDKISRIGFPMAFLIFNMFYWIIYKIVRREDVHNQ
Description: Whole-cell recording of substituted GlyR in HEK cells. The settings on record: α1^F99A.

The target of experiment [2] is T2, GlyR α1^F100A (Homo sapiens, UniProt P23415, F128A).
T2 sequence (P23415 29-457 F128A): T1 sequence (P23415 29-457 F127A) with A99F, F100A
The description is as above.

For experiment [3], the target named is T3, GlyR α1^F108A (Homo sapiens, UniProt P23415, F136A).
T3 sequence (P23415 29-457 F136A): T1 sequence (P23415 29-457 F127A) with A99F, F108A
The settings on record: α1^F108A.

Experiment [4] deals with T4, GlyR α1^L134A (Homo sapiens, UniProt P23415, L162A).
T4 sequence (P23415 29-457 L162A): T1 sequence (P23415 29-457 F127A) with A99F, L134A
Description: Whole-cell recording of substituted GlyR in HEK cells. As to conditions: α1^L134A.

In experiment [5] the target is T5, GlyR α1^V60A (Homo sapiens, UniProt P23415, V88A).
T5 sequence (P23415 29-457 V88A): T1 sequence (P23415 29-457 F127A) with V60A, A99F
The experiment is described as above.

Experiment [6] has as its target T6, GlyR α1^I62A (Homo sapiens, UniProt P23415, I90A).
T6 sequence (P23415 29-457 I90A): T1 sequence (P23415 29-457 F127A) with I62A, A99F
The experiment is described as above.

[7] abbreviates: read-out: Zn^2+ Activation EC50, direct activation without glycine.
[8] abbreviates: read-out: Zn^2+ Inhibition IC50, modulation of EC50 glycine currents.
Where [9] appears, read: maximal Zn^2+ response as percentage of maximal glycine response in same cell.

Take `NCC(=O)O` [Glycine, glycine]: the “Glycine Imax” value in experiment [1] was determined as 3.9 ± 0.4 nA; in experiment [2] it was 4.5 ± 0.7 nA; in experiment [3], 4.5 ± 0.5 nA; in experiment [4] it was 6.0 ± 0.3 nA; in experiment [5] it was 6.5 ± 1.3 nA; in experiment [6], 7.6 ± 0.7 nA. Further, the “Glycine nH” value in experiment [1] (Hill slope) is recorded as 2.3 ± 0.3; in experiment [2] (Hill slope), 1.8 ± 0.2; in experiment [3] (Hill slope), 2.3 ± 0.1; in experiment [4] (Hill slope) it was 3.0 ± 0.4; in experiment [5] (Hill slope), 3.5 ± 0.8; in experiment [6] (Hill slope) it was 2.5 ± 0.1.
On to `[Zn+2]` [Zn^2+], for which the EC50 in experiment [1] (setting [7]) was 0.13 ± 0.03 µM; in experiment [2] (setting [7]), 9.2 ± 0.6 µM; in experiment [3] (setting [7]) it was 2.3 ± 0.6 µM; in experiment [4] (setting [7]), 0.06 ± 0.01 µM; in experiment [6] (setting [7]), more than 1000 µM. For the same compound, the IC50 is more than 1000 µM in experiment [1] (setting [8]); more than 1000 µM in experiment [2] (setting [8]); more than 1000 µM in experiment [3] (setting [8]); more than 1000 µM in experiment [4] (setting [8]); 10.1 ± 1.26 µM in experiment [5] (setting [8]); more than 1000 µM in experiment [6] (setting [8]). Besides, the “Zn^2+ Activation nH” value came to 1.1 ± 0.1 in experiment [1] (Hill slope), 0.5 ± 0.1 in experiment [2] (Hill slope), 0.7 ± 0.1 in experiment [3] (Hill slope) and 1.3 ± 0.1 in experiment [4] (Hill slope). Besides, the “Zn^2+ Activation Relative efficacy (% Gly Imax)” value in experiment [1] (setting [9]) stood at 86 ± 13 % Gly Imax; in experiment [2] (setting [9]), 7 ± 4 % Gly Imax; in experiment [3] (setting [9]) it was 25 ± 6 % Gly Imax; in experiment [4] (setting [9]) it was 38 ± 9 % Gly Imax; in experiment [6] (maximal activation with 1 mM Zn^2+, as percentage of maximal glycine response in same cell), 3 ± 1 % Gly Imax. Moreover, the “Zn^2+ Activation EC50” value in experiment [5] (direct activation without glycine) was “None”.
